Values quoted from earlier work as cited in patent US12179232B2 (priority 2020, dated 2024).

Test system: coronaviruses
Settings: 0.05-0.2% benzalkonium chloride or 0.02% chlorhexidine digluconate

Compound | effectiveness of surface inactivation compared with ethanol, hydrogen peroxide, sodium hypochlorite
N=C(NCCCCCCNC(=N)NC(=N)Nc1ccc(Cl)cc1)NC(=N)Nc1ccc(Cl)cc1.O=C(O)[C@H](O)[C@@H](O)[C@H](O)[C@H](O)CO.O=C(O)[C@H](O)[C@@H](O)[C@H](O)[C@H](O)CO [chlorhexidine digluconate] | less effective
benzalkonium chloride | less effective
